Assay results: ChEMBL document CHEMBL1154256, “Inhibition of NF-kappaB activation and iNOS induction by ent-kaurane diterpenoids in LPS-stimulated RAW264.7 murine macrophages” (J Nat Prod, 2009)
Each block holds one molecule with its values, some of them ahead of it. Active and inactive are the calls of the source. The calls are words filed in the database; no cut-off is given here.

Legend:
[1] = (§1) Cytotoxicity against mouse RAW264.7 cells assessed as cell viability at 25 uM after 24 hrs by MTT assay; type: cell-based; settings: RAW264.7 cells, read-out: Activity
[2] = test system: RAW264.7; assay: Inhibition of NF-kappaB activation in LPS-stimulated mouse RAW264.7 cells at 1 uM after 24 hrs by Western blotting; type: cell-based
[3] = (§2) Cytotoxicity against mouse RAW264.7 cells assessed as cell viability at 5 uM after 24 hrs by MTT assay; type: cell-based; settings: RAW264.7 cells, read-out: Activity
[4] = test system: RAW264.7; assay: as §2; type: cell-based; settings: raw264.7, 24 h, 5 µM
[5] = test system: RAW264.7; assay: Inhibition of iNOS mRNA expression in LPS-stimulated mouse RAW264.7 cells at 5 uM after 8 hrs by RT-PCR; type: functional, cell-based
[6] = Inhibition of NF-kappaB activation in LPS-stimulated mouse RAW264.7 cells assessed as relative luciferase activity after 24 hrs by dual reporter gene assay; type: cell-based; settings: RAW264.7, 24 h
[7] = test system: RAW264.7; assay: Antiinflammatory activity against mouse RAW264.7 cells assessed as inhibition of LPS-induced iNOS expression at 0.1 to 5 uM after 24 hrs by Western blotting; type: functional, cell-based
[8] = test system: RAW264.7; assay: Antiinflammatory activity against mouse RAW264.7 cells assessed as inhibition of LPS-induced nitrite accumulation after 24 hrs by Griess reagent method; type: functional, cell-based; settings: for IC50: RAW264.7, 24 h
[9] = test system: RAW264.7; assay: Inhibition of NF-kappaB p65 subunit translocation into nucleus in LPS-stimulated mouse RAW264.7 cells assessed as p65 protein level at 1 uM pretreated for 1 hr before LPS challenge after 60 mins immunofluorescence microscopy; type: functional, cell-based
[10] = test system: RAW264.7; assay: Cytotoxicity against mouse RAW264.7 cells after 24 hrs by MTT assay; type: cell-based; settings: RAW264.7, 24 h
[11] = (§3) Cytotoxicity against mouse RAW264.7 cells assessed as cell viability at 10 uM after 24 hrs by MTT assay; type: cell-based; settings: RAW264.7 cells, read-out: Activity
[12] = test system: RAW264.7; assay: Inhibition of NF-kappaB p65 subunit translocation into nucleus in LPS-stimulated mouse RAW264.7 cells assessed as p65 protein level at 5 uM treated after LPS-stimulation for 24 hrs measured after 60 mins by Western blotting; type: functional, cell-based
[13] = test system: RAW264.7; assay: as §1; type: cell-based; settings: raw264.7, 24 h, 25 µM
[14] = molecular target: T1, Inhibitor of nuclear factor kappa-B kinase subunit beta (Mus musculus) (UniProt O88351); assay: Inhibition of LPS-stimulated IkappaB degradation in mouse RAW264.7 cells assessed as cellular IkappaB level at 5 uM treated after LPS-stimulation for 24 hrs measured after 60 mins by Western blotting; type: cell-based
T1 sequence (whole entry): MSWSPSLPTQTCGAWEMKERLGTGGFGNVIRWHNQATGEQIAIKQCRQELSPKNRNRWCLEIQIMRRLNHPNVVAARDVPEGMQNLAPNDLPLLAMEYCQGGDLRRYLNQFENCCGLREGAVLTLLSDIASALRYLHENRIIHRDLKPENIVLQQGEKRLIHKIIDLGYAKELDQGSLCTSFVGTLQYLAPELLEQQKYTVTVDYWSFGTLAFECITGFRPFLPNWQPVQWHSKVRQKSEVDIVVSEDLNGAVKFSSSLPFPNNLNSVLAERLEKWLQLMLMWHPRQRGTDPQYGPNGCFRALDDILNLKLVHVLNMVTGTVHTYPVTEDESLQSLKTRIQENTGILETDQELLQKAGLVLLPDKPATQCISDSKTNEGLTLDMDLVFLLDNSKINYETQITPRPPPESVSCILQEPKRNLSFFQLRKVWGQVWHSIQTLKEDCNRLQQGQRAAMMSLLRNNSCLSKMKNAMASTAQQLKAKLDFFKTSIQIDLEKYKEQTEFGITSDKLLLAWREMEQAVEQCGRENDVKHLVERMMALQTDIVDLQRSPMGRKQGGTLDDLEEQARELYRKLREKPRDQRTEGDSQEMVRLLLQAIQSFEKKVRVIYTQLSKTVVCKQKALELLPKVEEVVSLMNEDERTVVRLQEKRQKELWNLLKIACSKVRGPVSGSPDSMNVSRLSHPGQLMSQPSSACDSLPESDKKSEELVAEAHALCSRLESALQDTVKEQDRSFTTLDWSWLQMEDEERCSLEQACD

[15] = test system: RAW264.7; assay: as §3; type: cell-based; settings: raw264.7, 24 h, 10 µM

- IC50 [6]: 0.7 µM
- IC50 [8]: 0.225 µM
SMILES: C=C1C(=O)[C@@]23[C@@H]4O[C@H]5O[C@@]2(O)[C@@H](O)[C@@H]2C(C)(C)CCC[C@]52[C@@H]3CC[C@@H]14 [XEROPHILUSIN B]
- viability at 24 h, 25 µM [1]: > 97.5%
- inhibition [2]: Active
- viability at 24 h, 5 µM [3]: > 97.5%
- Activity [4]: Non-toxic
- inhibition [5]: Active
- inhibition [7]: Active
- inhibition [8]: Dose-dependent effect
- Activity [9]: Active
- IC50 [10]: 10.1 µM
- viability at 24 h, 10 µM [11]: > 97.5%
- Activity [12]: Active

- Activity [14]: Active
- IC50 [6]: 1.6 µM
- IC50 [8]: 0.673 µM
SMILES: C=C1C(=O)[C@]23[C@H](O)[C@H]1C[C@H](OC(C)=O)[C@H]2[C@]12CCCC(C)(C)[C@H]1C(=O)[C@]3(O)[C@H]2O [XEROPHILUSIN F]
- viability at 24 h, 25 µM [1]: > 97.5%
- Activity [13]: Non-toxic
- inhibition [2]: inactive
- viability at 24 h, 5 µM [3]: > 97.5%
- inhibition [5]: Active
- inhibition [7]: Active
- inhibition [8]: Dose-dependent effect
- Activity [9]: Active
- IC50 [10]: 52.4 µM
- viability at 24 h, 10 µM [11]: > 97.5%
- Activity [12]: Active

- IC50 [6]: 1.8 µM
- IC50 [8]: 0.6 µM
SMILES: C=C1C(=O)[C@@]23[C@@H]4O[C@H]5O[C@@]2(O)[C@@H](O)[C@@H]2C(C)(C)CCC[C@]52[C@@H]3[C@@H](OC(C)=O)C[C@@H]14 [XEROPHILUSIN A]
- viability at 24 h, 25 µM [1]: > 97.5%
- inhibition [2]: Active
- viability at 24 h, 5 µM [3]: > 97.5%
- Activity [4]: Non-toxic
- inhibition [5]: Active
- inhibition [7]: Active
- inhibition [8]: Dose-dependent effect
- Activity [9]: Active
- IC50 [10]: 11.3 µM
- viability at 24 h, 10 µM [11]: > 97.5%
- Activity [12]: Active

- IC50 [6]: 1.2 µM
- IC50 [8]: 0.435 µM
SMILES: C=C1C(=O)[C@]23[C@H](O)[C@H]1CC[C@H]2[C@]12CCC[C@@](C)(COC(C)=O)[C@H]1[C@H](O)[C@]3(O)OC2 [LONGIKAURIN B]
- viability at 24 h, 25 µM [1]: > 97.5%
- inhibition [2]: Active
- viability at 24 h, 5 µM [3]: > 97.5%
- inhibition [5]: Active
- inhibition [7]: Active
- inhibition [8]: Dose-dependent effect
- Activity [9]: Active
- IC50 [10]: 44.8 µM
- viability at 24 h, 10 µM [11]: > 97.5%
- Activity [15]: Non-toxic
- Activity [12]: Active
